The source of these data is the NIST ThermoML archive (doi:10.1021/je300692s).

The data set in a line: activity coefficient (dimensionless); of the first substance listed, at infinite dilution; xn = mol fraction of the nth substance listed. To be noted: 101 kPa, Liquid, Chromatography, x1 = 0.

Numbers after ± are expanded uncertainties.

Regarding `CC#N` [acetonitrile] + CCCCCCCCCC[N+]1(C)CCCC1.O=S(=O)([N-]S(=O)(=O)C(F)(F)F)C(F)(F)F, the activity coefficient reads like this: (322.6 K) 0.49 ± 0.05; (332.5 K) 0.5 ± 0.06; (342.8 K) 0.49 ± 0.05.
Regarding `CC#N` [acetonitrile] + CCCCCCCC[N+]1(C)CCCC1.O=S(=O)([N-]S(=O)(=O)C(F)(F)F)C(F)(F)F, the activity coefficient is, setting by setting: (323 K) 0.43 ± 0.05; (333 K) 0.39 ± 0.05; (343.1 K) 0.37 ± 0.04.
As for `CC#N` [acetonitrile] + CCCCCC[N+]1(C)CCCC1.O=S(=O)([N-]S(=O)(=O)C(F)(F)F)C(F)(F)F, the activity coefficient was 0.46 ± 0.05 (322.9 K), 0.46 ± 0.05 (333 K) and 0.48 ± 0.05 (343.1 K).
On to `c1ccccc1` [benzene] + CCCCCCCCCC[N+]1(C)CCCC1.O=S(=O)([N-]S(=O)(=O)C(F)(F)F)C(F)(F)F, for which the activity coefficient was determined as 0.62 ± 0.07 (322.6 K), 0.63 ± 0.07 (332.5 K) and 0.64 ± 0.07 (342.8 K).
As to `c1ccccc1` [benzene] + CCCCCCCC[N+]1(C)CCCC1.O=S(=O)([N-]S(=O)(=O)C(F)(F)F)C(F)(F)F, the activity coefficient reads like this: (323 K) 0.6 ± 0.06; (333 K) 0.62 ± 0.07; (343.1 K) 0.61 ± 0.07.
As to `c1ccccc1` [benzene] + CCCCCC[N+]1(C)CCCC1.O=S(=O)([N-]S(=O)(=O)C(F)(F)F)C(F)(F)F, the activity coefficient is 0.76 ± 0.08 (322.9 K), 0.77 ± 0.08 (333 K) and 0.78 ± 0.08 (343.1 K).
Take `CCCCO` [butan-1-ol] + CCCCCCCCCC[N+]1(C)CCCC1.O=S(=O)([N-]S(=O)(=O)C(F)(F)F)C(F)(F)F: the activity coefficient worked out at 2.2 ± 0.23 (322.6 K), 1.85 ± 0.19 (332.5 K) and 1.64 ± 0.17 (342.8 K).
For `CCCCO` [butan-1-ol] + CCCCCC[N+]1(C)CCCC1.O=S(=O)([N-]S(=O)(=O)C(F)(F)F)C(F)(F)F, the activity coefficient is, setting by setting: (322.9 K) 2.28 ± 0.24; (333 K) 2.86 ± 0.3; (343.1 K) 2.04 ± 0.21.
On to `CCC(C)=O` [butanone] + CCCCCCCCCC[N+]1(C)CCCC1.O=S(=O)([N-]S(=O)(=O)C(F)(F)F)C(F)(F)F, for which the activity coefficient stood at 0.39 ± 0.05 (322.6 K), 0.37 ± 0.04 (332.5 K) and 0.34 ± 0.04 (342.8 K).
In the case of `CCC(C)=O` [butanone] + CCCCCCCC[N+]1(C)CCCC1.O=S(=O)([N-]S(=O)(=O)C(F)(F)F)C(F)(F)F, the activity coefficient reads like this: (323 K) 0.36 ± 0.04; (333 K) 0.34 ± 0.04; (343.1 K) 0.31 ± 0.04.
Turning to `CCC(C)=O` [butanone] + CCCCCC[N+]1(C)CCCC1.O=S(=O)([N-]S(=O)(=O)C(F)(F)F)C(F)(F)F, the activity coefficient runs as follows: (322.9 K) 0.42 ± 0.05; (333 K) 0.42 ± 0.05; (343.1 K) 0.39 ± 0.05.
With `C1CCCCCC1` [cycloheptane] + CCCCCCCCCC[N+]1(C)CCCC1.O=S(=O)([N-]S(=O)(=O)C(F)(F)F)C(F)(F)F, the activity coefficient is 7 ± 0.74 (322.6 K), 9.72 ± 1 (332.5 K) and 13.3 ± 1.4 (342.8 K).
In the case of `C1CCCCCC1` [cycloheptane] + CCCCCCCC[N+]1(C)CCCC1.O=S(=O)([N-]S(=O)(=O)C(F)(F)F)C(F)(F)F, the activity coefficient by setting is: (323 K) 8.62 ± 0.91; (333 K) 12.1 ± 1.3; (343.1 K) 15.4 ± 1.6.
As for `C1CCCCCC1` [cycloheptane] + CCCCCC[N+]1(C)CCCC1.O=S(=O)([N-]S(=O)(=O)C(F)(F)F)C(F)(F)F, the activity coefficient (322.9 K) was determined as 14 ± 1.5, the activity coefficient (333 K) was 19 ± 2 and the activity coefficient (343.1 K) is 25.1 ± 2.6.
Consider `C1CCCCC1` [cyclohexane] + CCCCCCCCCC[N+]1(C)CCCC1.O=S(=O)([N-]S(=O)(=O)C(F)(F)F)C(F)(F)F, for which the activity coefficient (322.6 K) turned out to be 2.81 ± 0.3, the activity coefficient (332.5 K) stood at 2.71 ± 0.28 and the activity coefficient (342.8 K) amounted to 2.62 ± 0.28.
For `C1CCCCC1` [cyclohexane] + CCCCCCCC[N+]1(C)CCCC1.O=S(=O)([N-]S(=O)(=O)C(F)(F)F)C(F)(F)F, the activity coefficient stood at 3.45 ± 0.36 (323 K), 3.31 ± 0.35 (333 K) and 3.06 ± 0.32 (343.1 K).
`C1CCCCC1` [cyclohexane] + CCCCCC[N+]1(C)CCCC1.O=S(=O)([N-]S(=O)(=O)C(F)(F)F)C(F)(F)F: the activity coefficient is, setting by setting: (322.9 K) 5.16 ± 0.54; (333 K) 4.64 ± 0.49; (343.1 K) 4.67 ± 0.49.
For `CCCCCCCCCC` [decane] + CCCCCCCCCC[N+]1(C)CCCC1.O=S(=O)([N-]S(=O)(=O)C(F)(F)F)C(F)(F)F, the activity coefficient runs as follows: (322.6 K) 9.42 ± 0.99; (332.5 K) 9.05 ± 0.95; (342.8 K) 8.7 ± 0.91.
Regarding `CCCCCCCCCC` [decane] + CCCCCCCC[N+]1(C)CCCC1.O=S(=O)([N-]S(=O)(=O)C(F)(F)F)C(F)(F)F, the activity coefficient (323 K) was 14.8 ± 0.88, the activity coefficient (333 K) was determined as 12.5 ± 0.75 and the activity coefficient (343.1 K) came to 11 ± 0.66.
In the case of `CCCCCCCCCC` [decane] + CCCCCC[N+]1(C)CCCC1.O=S(=O)([N-]S(=O)(=O)C(F)(F)F)C(F)(F)F, the activity coefficient runs as follows: (322.9 K) 26 ± 2.7; (333 K) 19 ± 2; (343.1 K) 22.7 ± 2.4.
In the case of `ClCCl` [dichloromethane] + CCCCCCCCCC[N+]1(C)CCCC1.O=S(=O)([N-]S(=O)(=O)C(F)(F)F)C(F)(F)F, the activity coefficient (322.6 K) worked out at 0.27 ± 0.04, the activity coefficient (332.5 K) was 0.3 ± 0.04 and the activity coefficient (342.8 K) was 0.3 ± 0.04.
Take `ClCCl` [dichloromethane] + CCCCCCCC[N+]1(C)CCCC1.O=S(=O)([N-]S(=O)(=O)C(F)(F)F)C(F)(F)F: the activity coefficient worked out at 0.26 ± 0.04 (323 K), 0.27 ± 0.04 (333 K) and 0.28 ± 0.04 (343.1 K).
With `ClCCl` [dichloromethane] + CCCCCC[N+]1(C)CCCC1.O=S(=O)([N-]S(=O)(=O)C(F)(F)F)C(F)(F)F, the activity coefficient was 0.31 ± 0.04 (322.9 K), 0.36 ± 0.04 (333 K) and 0.35 ± 0.04 (343.1 K).
In the case of `CCOCC` [diethyl ether] + CCCCCCCCCC[N+]1(C)CCCC1.O=S(=O)([N-]S(=O)(=O)C(F)(F)F)C(F)(F)F, the activity coefficient (322.6 K) was determined as 1.27 ± 0.13, the activity coefficient (332.5 K) came out at 1.25 ± 0.13 and the activity coefficient (342.8 K) is 1.25 ± 0.13.
Regarding `CCOCC` [diethyl ether] + CCCCCCCC[N+]1(C)CCCC1.O=S(=O)([N-]S(=O)(=O)C(F)(F)F)C(F)(F)F, the activity coefficient by setting is: (323 K) 1.34 ± 0.14; (333 K) 1.34 ± 0.14; (343.1 K) 1.14 ± 0.12.
As to `CCOCC` [diethyl ether] + CCCCCC[N+]1(C)CCCC1.O=S(=O)([N-]S(=O)(=O)C(F)(F)F)C(F)(F)F, the activity coefficient reads like this: (322.9 K) 1.56 ± 0.16; (333 K) 1.76 ± 0.18; (343.1 K) 1.76 ± 0.18.
Consider `CC(C)OC(C)C` [diisopropyl ether] + CCCCCCCCCC[N+]1(C)CCCC1.O=S(=O)([N-]S(=O)(=O)C(F)(F)F)C(F)(F)F, for which the activity coefficient runs as follows: (322.6 K) 2.29 ± 0.24; (332.5 K) 2.28 ± 0.24; (342.8 K) 2.26 ± 0.24.
On to `CC(C)OC(C)C` [diisopropyl ether] + CCCCCCCC[N+]1(C)CCCC1.O=S(=O)([N-]S(=O)(=O)C(F)(F)F)C(F)(F)F, for which the activity coefficient runs as follows: (323 K) 2.57 ± 0.27; (333 K) 2.58 ± 0.27; (343.1 K) 2.26 ± 0.24.
For `CC(C)OC(C)C` [diisopropyl ether] + CCCCCC[N+]1(C)CCCC1.O=S(=O)([N-]S(=O)(=O)C(F)(F)F)C(F)(F)F, the activity coefficient runs as follows: (322.9 K) 3.18 ± 0.33; (333 K) 3.56 ± 0.37; (343.1 K) 3.53 ± 0.37.
With `CCO` [ethanol] + CCCCCCCCCC[N+]1(C)CCCC1.O=S(=O)([N-]S(=O)(=O)C(F)(F)F)C(F)(F)F, the activity coefficient is, setting by setting: (322.6 K) 1.46 ± 0.15; (332.5 K) 1.34 ± 0.14; (342.8 K) 1.22 ± 0.13.
As for `CCO` [ethanol] + CCCCCCCC[N+]1(C)CCCC1.O=S(=O)([N-]S(=O)(=O)C(F)(F)F)C(F)(F)F, the activity coefficient amounted to 1.33 ± 0.14 (323 K), 1.26 ± 0.13 (333 K) and 0.98 ± 0.1 (343.1 K).
On to `CCO` [ethanol] + CCCCCC[N+]1(C)CCCC1.O=S(=O)([N-]S(=O)(=O)C(F)(F)F)C(F)(F)F, for which the activity coefficient was 1.41 ± 0.15 (322.9 K), 1.4 ± 0.14 (333 K) and 1.31 ± 0.13 (343.1 K).
Turning to `CCc1ccccc1` [ethylbenzene] + CCCCCCCCCC[N+]1(C)CCCC1.O=S(=O)([N-]S(=O)(=O)C(F)(F)F)C(F)(F)F, the activity coefficient runs as follows: (322.6 K) 1.01 ± 0.05; (332.5 K) 1.04 ± 0.06; (342.8 K) 1.06 ± 0.06.
In the case of `CCc1ccccc1` [ethylbenzene] + CCCCCCCC[N+]1(C)CCCC1.O=S(=O)([N-]S(=O)(=O)C(F)(F)F)C(F)(F)F, the activity coefficient reads like this: (323 K) 1.03 ± 0.1; (333 K) 0.98 ± 0.1; (343.1 K) 1.04 ± 0.11.
In the case of `CCc1ccccc1` [ethylbenzene] + CCCCCC[N+]1(C)CCCC1.O=S(=O)([N-]S(=O)(=O)C(F)(F)F)C(F)(F)F, the activity coefficient was determined as 1.38 ± 0.14 (322.9 K), 1.43 ± 0.15 (333 K) and 1.46 ± 0.15 (343.1 K).
With `CCCCCCC` [heptane] + CCCCCCCCCC[N+]1(C)CCCC1.O=S(=O)([N-]S(=O)(=O)C(F)(F)F)C(F)(F)F, the activity coefficient by setting is: (322.6 K) 4.91 ± 0.52; (332.5 K) 4.75 ± 0.5; (342.8 K) 4.62 ± 0.49.
For the molecule `CCCCCCC` [heptane] + CCCCCCCC[N+]1(C)CCCC1.O=S(=O)([N-]S(=O)(=O)C(F)(F)F)C(F)(F)F, the activity coefficient runs as follows: (323 K) 6.4 ± 0.67; (333 K) 6.06 ± 0.64; (343.1 K) 5.13 ± 0.54.
On to `CCCCCCC` [heptane] + CCCCCC[N+]1(C)CCCC1.O=S(=O)([N-]S(=O)(=O)C(F)(F)F)C(F)(F)F, for which the activity coefficient reads like this: (322.9 K) 10.6 ± 1.1; (333 K) 9.43 ± 0.99; (343.1 K) 9.58 ± 1.
